Measurements from patent publication US7371768B2, “Pyrazol derivatives, pest control agent comprising the same as active ingredient, and process for producing the same” (Nihon Nohyaku Co., Ltd., priority 2000, dated 2008).
Where two headings read alike, the source gives them in different places.

Experiments:
Nilaparvata lugens [1] = experiment: Insecticidal effect on larvae of brown rice planthopper through systemic activity (root uptake); assay type: in vivo; details: for Death rate (%) 0.8 ppm: 0.8 ppm agent solution at rice roots; for Death rate (%) 0.8 ppm / Death rate (%) 3.1 ppm: larvae placed after 3 days, 4th day, 25° C.; for Death rate (%) 3.1 ppm: 3.1 ppm agent solution at rice roots; for insecticidal activity through systemic property, in words: summary of Table 6
Procedure: Roots of young rice seedlings (height: about 10 cm) planted in a plastic cup were washed with water and soil was washed away so as not to damage the fine roots. The stem was pinched by a urethane tip (diameter: 3 cm, height: 2 cm) having a cut line and the roots were inserted into an Erlenmeyer flask to which 50 ml of an agent solution (an aqueous dilution of the agricultural and horticultural insecticide of the present invention prepared in accordance with Formulation Example 1) was placed beforehand (2 to 3 young rice seedlings/flask). The urethane chip was wedged into the mouse of the flask to fix the rice seedlings. A glass tube (diameter: 3 cm, height: 5 cm) was placed thereon, wedged into the urethane chip, and fixed with a tape. The flask in such state was kept in a constant temperature room at 25° C. for 3 days. Five larvae of Nilaparvata lugens were placed in the glass tube and then the tube was capped with a urethane chip, followed by keeping in the constant temperature room at 25° C. (duplicates at a concentration). The mortality and agony of the larvae were investigated on 4th day after the treatment to obtain a death rate (%) taking an agonizing insect as a ½ dead insect. This test was carried out on two agent solutions different in the concentration of the active ingredient. The results are shown in Table 6 (the compound numbers in the table correspond to the numbers in Table 1).
Additionally, as reference compounds, Compounds I, II and III described in JP-A-10-338676 were similarly tested.

[2] = system: Chinese hamster lung fibroblast line V79; experiment: In vitro intercellular metabolic cooperation inhibition test (IMC); assay type: cell-based
Procedure: In this Test Example, using an inhibitory action of gap-junctional intercellular communication as an index, the existence of carcinogenicity (tumor-promoting action) of a compound was investigated.
In this test, a mixed culture system of Chinese hamster lung fibroblast line V79 (hgprt+) having hypoxanthine-guanine phosphoribosyltransferase activity and cells having no such activity (hgprt−) was treated by adding thereto the following compounds together with 6-thioguanine (6-TG). When the intercellular communication is normal, the toxic metabolite of 6-TG formed in hgprt+ cells (6-TG sensitive) is transferred into hgprt− cells (6-TG resistant) through gap junction, so that both of the cells die. On the other hand, when the intracellular communication is inhibited by the test compound, only the hgprt− cells survive and form colonies.

Callosobruchus chinensis = experiment: Insecticidal effect on imagoes of adzuki bean weevil, spray test; assay type: in vivo; details: 500 ppm, sprayed, 25° C., after 4 days, agonizing insect counted as 1/2 dead
Procedure: Two adzuki beans were put in a glass cylinder (inner diameter: 3 cm×length: 15 cm), and 10 imagoes of Callosobruchus chinensis were set free therein. An agricutural and horticultural insecticide of the present invention was prepared in accordance with Formulation and diluted with water, and 0.3 ml of the resulting dilution was sprayed in the above glass cylinder with a spray tower (manufactured by Mizuho Rika) (duplicates at a concentration). The cylinder was kept in temperature room at 25° C., and the mortality and agony of thee larvae were investigated after 4 days from the treatment to obtain a death rate (%) taking an agonizing insect as a ½ dead insect. The results obtained are shown in Table 4 (the compound numbers in the table correspond to the numbers in Table 1).

Plutella xylostella = experiment: Insecticidal effect on larvae of diamond back moth, cabbage leaf disc dip; assay type: in vivo; details: 500 ppm, 3-instar larvae, 25° C., after 4 days, agonizing insect counted as 1/2 dead
Procedure: A disc (diameter: 6 cm) cut out of a cabbage leaf was for 1 minute in an aqueous dilution of the agricultural and horticultural insecticide of the present invention prepared in accordance with Formulation Example 1, then air-dried, and placed in a plastic cup (inner diameter: 7 cm). Five 3-instar larvae of Plutella xylostella were set free in the cup (duplicates at a concentration). The cup was kept in a constant temperature room at 25° C., and the death and agony of the larvae were investigated after 4 days from the treatment to obtain a death rate (%) taking an agonizing insect as a ½ dead insect. The results are shown in Table 3 (the compound numbers in the following table below correspond to the numbers in Table 1).

Nilaparvata lugens [3] = experiment: Insecticidal effect on larvae of brown rice planthopper, spray test; assay type: in vivo; details: 500 ppm, sprayed, 4th instar larvae, 25° C., after 5 days; agonizing insect counted as 1/2 dead
Procedure: A rice seedling was planted in a glass cylinder (inner diameter: 3 cm×length: 17 cm), and five 4th instar larvae of Nilaparvata lugens were set free therein. An agricultural and horticultural insecticide of the present invention was prepared in accordance with Formulation Example 3 and diluted with water, and 0.5 ml of the resulting dilution was sprayed into the above glass cylinder with a spraying tower (manufactured by Mizuho Rika) (duplicates at a concentration). The cylinder was kept in a constant temperature room at 25° C., and the mortality and agony of the larvae were investigated after 5 days from the treatment to obtain a death rate (%) taking an agonizing insect as a ½ dead insect. The results obtained are shown in Table 2 (the compound numbers in the table correspond to the numbers in Table 1).

Myzus persicae = experiment: Insecticidal effect on larvae of green peach aphid, leaf soak; assay type: in vivo; details: 500 ppm, leaves soaked about 5 seconds, 25° C., 4th day after treatment
Procedure: Water was put in a screw bottle (volume: 10 ml), and a leaftalk of Japanese radish was placed therein and then inoculated with 5 to 6 insects of Myzus persicae per leave. After the inoculation, the bottle was put in a glass cylinder (diameter: 3.5 cm; height: 15 cm, with a mesh cover), and the insects were let to proliferate in a constant temperature room kept at 25° C. for 3 days. The imagoes on the leaves were removed, and the leaves were soaked in an aqueous dilution of an agricultural and horticultural insecticide of the present invention prepared in accordance with Formulation Example 3 (for about 5 seconds) and then returned into the glass cylinder (duplicates at a concentration). The cylinder was kept in the constant temperature room at 25° C., and the number of the insects on the leaves was counted on the 4th day after the treatment to obtain a death rate (%) based on the results. The results obtained are shown in Table 5 (the compound numbers in the table correspond to the numbers in Table 1).

Cat Flea = experiment: Insecticidal effect on cat flea, treated filter; assay type: in vivo; details: 0.7 mg/filter; mortality investigated on 1st day and 2nd day after treatment
Procedure: Onto a round filter (diameter: 10 cm) was added dropwise 0.7 ml of an agent solution diluted to a predetermined concentration. After drying, the filter was placed on the bottom of a cylinder (diameter: 10 cm×height: 30 cm). Ten fleas were set free therein and the mortality was investigated on 1st day and 2nd day after the treatment to calculate a death rate (%) based on the results. The results are shown in Table 7 (the compound numbers in the table correspond to the numbers in Table 1).

SMILES	Death rate (%) 0.8 ppm (Nilaparvata lugens [1])	Death rate (%) 3.1 ppm (Nilaparvata lugens [1])	insecticidal activity through systemic property, in words (Nilaparvata lugens [1])	IMC test result (inhibition of gap-junctional intercellular communication, index of tumor-promoting action) [2]	colony forming rate ([2]; at 7.5 and 15 μg/ml, V79 hgprt+/hgprt- mixed culture with 6-thioguanine)	Death rate (%) (Callosobruchus chinensis)	Death rate (%) (Plutella xylostella)	Death rate (%) (Nilaparvata lugens [3])	Death rate (%) (Myzus persicae)	Death rate (%) (Cat Flea)	IMC test result (inhibition of gap-junctional intercellular communication, index of tumor-promoting action) ([2]; V79 hgprt+/hgprt- mixed culture with 6-thioguanine)
CSc1c(C#N)nn(-c2c(Cl)cc(C(F)(F)F)cc2Cl)c1NCc1ccncc1 [Compound I]	100%	100%	insecticidal activity through a high systemic property	positive	significant increase						
N#Cc1nn(-c2c(Cl)cc(C(F)(F)F)cc2Cl)c(NCc2ccncc2)c1SCF [Compound No. 1, 1-(2,6-dichloro-4-trifluoromethylphenyl)-4-fluoromethylthio-5-(pyridin-4-ylmethylamino)pyrazole-3-carbonitrile]	100%	100%				100%	100%	100%	100%		
N#Cc1nn(-c2c(Cl)cc(C(F)(F)F)cc2Cl)c(NCc2ccccn2)c1SC(F)F [Compound No. 2, 1-(2,6-dichloro-4-trifluoromethylphenyl)-4-difluoromethylthio-5-(pyridin-2-ylmethylamino)pyrazole-3-carbonitrile]	100%	100%				100%	100%	100%	100%	100%	negative
N#Cc1nn(-c2c(Cl)cc(C(F)(F)F)cc2Cl)c(NCc2ccccn2)c1SC(F)(F)F [III]	0%	0%	obviously inferior effect								
N#Cc1nn(-c2c(Cl)cc(C(F)(F)F)cc2Cl)c(NCc2ccncc2)c1SC(F)(F)F [II]	20%	50%	obviously inferior effect								
